# Measurements reported in patent US11952351B2, “Lipid particle, composition comprising lipid particle, and method for delivering activators to cell” (KABUSHIKI KAISHA TOSHIBA, priority 2018, dated 2024).
# Legend:
# [1] = system: human peripheral blood mononuclear cells PBMCs; experiment: vector DNA introduced by liposomes of Table 3, NLuc enzyme activity, PBMC; format: cell-based; conditions: set of compound (2-01) and DOPE; 0.8 μg DNA/well, 48 hours, FIG. 5
# Description: (§1) The amount of vector DNA introduced to cells by the liposomes was quantified on the basis of expression of NLuc genes on vector DNA. For evaluating the expression of NLuc, emission thereof was measured with a microtiter plate reader (infinite F200 [trademark], manufactured by Tecan). As the cells, human T-cell leukemia cell lines Jurkat (purchased from American Type Culture Collection) and human peripheral blood mononuclear cells PBMCs (purchased from LONZA Japan) were adopted. After 100 μL of the Jurkat cell suspension (1×10^6 cells/mL) and 100 μL of the PBMC cell suspension (5×10^6 cells/mL) were individually inoculated on a 96-well plate, 1 μL of each liposome solution shown in Table 1 was added so that the DNA amount might be 0.8 μg/well. Thereafter, the cells were incubated in an incubator at 37° C. for 48 hours under an atmosphere of 5% CO2, and then enzyme activity of NLuc was measured. The measurement of NLuc enzyme activity was carried out by use of NanoGlo Luciferase Assay System ([trademark], manufactured by Promega Corporation) with a luminometer according to the manual attached to the kit. The results are shown in FIG. 4 (Jurkat) and FIG. 5 (PBMC).
# [2] = system: human T-cell leukemia cell lines Jurkat; experiment: vector DNA introduced by liposomes of Table 3, NLuc enzyme activity, Jurkat; format: cell-based; conditions: DOTAP as lipid forming a membrane; 0.8 μg DNA/well, 48 hours, FIG. 4
# Description: as §1
# [3] = system: Jurkat, MCF-7 and Huh-7 cells; experiment: vector DNA introduced by liposomes of Table 7, NLuc enzyme activity; format: cell-based, human; conditions: MCF-7, Huh-7, Jurkat; 48 hours, FIGS. 7 to 11
# Description: The amount of vector DNA introduced to cells by the liposomes was quantified on the basis of expression of NLuc genes on vector DNA. For evaluating the expression of NLuc, emission thereof was measured with a microtiter plate reader (infinite F200 [trademark], manufactured by Tecan). As the cells, human T-cell leukemia cell lines Jurkat, human breast cancer cell lines MCF-7 and human liver cancer cell lines Huh-7 (purchased from American Type Culture Collection) were adopted. After 100 μL of the cell suspension (1×10^6 cells/mL) was inoculated on a 96-well plate, 1 μL of each liposome solution shown in Table 7 was added. Thereafter, the cells were incubated in an incubator at 37° C. for 48 hours under an atmosphere of 5% CO2, and then enzyme activity of NLuc was measured. The measurement of NLuc enzyme activity was carried out by use of NanoGlo Luciferase Assay System ([trademark], manufactured by Promega Corporation) with a luminometer according to the manual attached to the kit. FIGS. 7 to 9 show graphs in which Examples 4-1 and 4-2 are compared. […] FIGS. 10 and 11 show graphs in which Examples 4-2 and 4-3 are compared.
structure (smiles),measurement,setting,value
CCCCCC/C=C/COC(=O)CCCCCCCC(CCCCCCCC(=O)OC/C=C/CCCCCC)CN(C)CCN(C)C [compound (1-01)],efficiency of NLuc gene expression in PBMC cells,[1],higher efficiency of NLuc gene expression in PBMC cells than the compound of the formula (1-02)
CCCCCC/C=C/COC(=O)CCCCCCCC(CCCCCCCC(=O)OC/C=C/CCCCCC)CCCCN1CCN(C)CC1 [compound (1-02)],efficiency of NLuc gene expression in Jurkat cells,[2],higher efficiency of NLuc gene expression in Jurkat cells than the compound of the formula (1-01)
CC1=C(/C=C/C(C)=C/C=C/C(C)=C/C(=O)OCCCN(C)CCOCCOCCN(C)CCCOC(=O)/C=C(C)/C=C/C=C(C)/C=C/C2=C(C)CCCC2(C)C)C(C)(C)CCC1 [compound (2-01)],expression efficiencies of NLuc genes (comparison in words),[3],more easily introduced into adherent cells than into floating cells
